We go through eleven compounds from US7880007B2, “Bicyclic substituted phenyl piperidine modulators of muscarinic receptors” (Vertex Pharmaceuticals Incorporated, priority 2004, dated 2011).

Each structure is given as a SMILES string.

Common to all, as to format: cell-based
One test deals with T1, M1 muscarinic receptor (Homo sapiens, UniProt P11229).
T1 construct: expressed in transfected cells; host or cells: CHO (M1-CHO)
T1 sequence (P11229 1-460): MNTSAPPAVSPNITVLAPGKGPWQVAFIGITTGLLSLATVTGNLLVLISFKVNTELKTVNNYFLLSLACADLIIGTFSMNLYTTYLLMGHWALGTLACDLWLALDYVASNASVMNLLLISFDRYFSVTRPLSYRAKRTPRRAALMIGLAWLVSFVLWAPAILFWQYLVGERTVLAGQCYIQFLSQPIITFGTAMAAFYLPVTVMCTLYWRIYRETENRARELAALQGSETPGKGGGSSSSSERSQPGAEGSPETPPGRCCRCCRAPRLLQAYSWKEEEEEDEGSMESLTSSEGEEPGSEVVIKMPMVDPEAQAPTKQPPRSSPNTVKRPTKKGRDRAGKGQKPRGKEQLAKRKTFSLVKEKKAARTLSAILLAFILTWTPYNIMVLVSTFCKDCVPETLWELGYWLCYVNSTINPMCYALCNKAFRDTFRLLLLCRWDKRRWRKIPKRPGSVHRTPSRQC
Briefly: Functional mobilization of intracellular calcium (FLIPR), M1-CHO cells. The conditions noted are these: for M1 Activity: M1-CHO cells, calcium mobilization (FLIPR). An outline of the steps:
(§1)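 CHO cells expressing human M1–M4 receptors loaded with Fluo-3 AM or Calcium 3 dye (1 mM probenecid, pH 7.4); 0.5% DMSO final. Agonist mode: compound added directly; antagonist mode: 15 min pre-incubation or co-application, then carbachol at EC80. Fluorescence read 60 s on FLIPR; efficacy relative to carbachol maximum.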

In the next test the target is T2, M4 muscarinic receptor (Homo sapiens, UniProt P08173).
T2 construct: expressed in transfected cells; host or cells: CHO (M4-CHO)
T2 sequence (P08173 1-479): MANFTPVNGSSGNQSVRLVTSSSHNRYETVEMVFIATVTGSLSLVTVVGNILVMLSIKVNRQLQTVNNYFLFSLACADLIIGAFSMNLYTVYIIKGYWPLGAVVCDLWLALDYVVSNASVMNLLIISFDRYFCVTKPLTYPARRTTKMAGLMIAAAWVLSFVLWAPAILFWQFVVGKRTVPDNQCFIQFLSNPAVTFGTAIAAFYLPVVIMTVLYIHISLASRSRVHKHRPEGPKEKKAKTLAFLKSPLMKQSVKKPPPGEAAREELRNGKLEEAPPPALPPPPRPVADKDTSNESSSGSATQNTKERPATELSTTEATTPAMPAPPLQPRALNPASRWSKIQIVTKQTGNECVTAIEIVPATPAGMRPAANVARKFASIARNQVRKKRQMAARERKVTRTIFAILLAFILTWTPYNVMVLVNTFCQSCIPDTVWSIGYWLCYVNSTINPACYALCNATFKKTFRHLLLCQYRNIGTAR
Briefly: Functional mobilization of intracellular calcium (FLIPR), M4-CHO cells. The conditions noted are these: for M4 Activity: M4-CHO cells, calcium mobilization (FLIPR). The method, boiled down: as §1
A general note: Calcium flux is commonly read through the fluorescence of an indicator in the cells.

The target of a further test is T3, M3 muscarinic receptor (Homo sapiens, UniProt P20309).
T3 construct: expressed in transfected cells; host or cells: CHO (M3-CHO)
T3 sequence (P20309 whole entry): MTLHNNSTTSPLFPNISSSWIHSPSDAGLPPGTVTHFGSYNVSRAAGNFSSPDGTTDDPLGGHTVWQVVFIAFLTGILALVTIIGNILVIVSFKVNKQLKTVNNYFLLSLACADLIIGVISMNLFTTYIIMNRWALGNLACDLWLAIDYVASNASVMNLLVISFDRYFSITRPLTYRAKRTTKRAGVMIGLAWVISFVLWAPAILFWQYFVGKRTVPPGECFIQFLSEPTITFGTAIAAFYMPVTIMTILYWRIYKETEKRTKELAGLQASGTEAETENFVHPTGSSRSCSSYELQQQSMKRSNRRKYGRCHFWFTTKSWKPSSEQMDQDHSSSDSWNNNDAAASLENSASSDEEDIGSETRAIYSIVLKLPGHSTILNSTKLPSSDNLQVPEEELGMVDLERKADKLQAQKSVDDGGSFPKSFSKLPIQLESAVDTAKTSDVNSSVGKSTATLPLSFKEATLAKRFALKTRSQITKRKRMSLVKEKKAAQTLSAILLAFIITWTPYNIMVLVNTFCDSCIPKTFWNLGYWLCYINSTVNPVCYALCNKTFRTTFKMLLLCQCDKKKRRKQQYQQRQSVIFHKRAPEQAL
Briefly: Functional mobilization of intracellular calcium (FLIPR), M3-CHO cells. The following applies: for M3 Activity: M3-CHO cells, calcium mobilization (FLIPR). The method, boiled down: as §1

Another test deals with T4, M2 muscarinic receptor (Homo sapiens, UniProt P08172).
T4 construct: expressed in transfected cells; host or cells: CHO (M2-CHO)
T4 sequence (P08172 1-466): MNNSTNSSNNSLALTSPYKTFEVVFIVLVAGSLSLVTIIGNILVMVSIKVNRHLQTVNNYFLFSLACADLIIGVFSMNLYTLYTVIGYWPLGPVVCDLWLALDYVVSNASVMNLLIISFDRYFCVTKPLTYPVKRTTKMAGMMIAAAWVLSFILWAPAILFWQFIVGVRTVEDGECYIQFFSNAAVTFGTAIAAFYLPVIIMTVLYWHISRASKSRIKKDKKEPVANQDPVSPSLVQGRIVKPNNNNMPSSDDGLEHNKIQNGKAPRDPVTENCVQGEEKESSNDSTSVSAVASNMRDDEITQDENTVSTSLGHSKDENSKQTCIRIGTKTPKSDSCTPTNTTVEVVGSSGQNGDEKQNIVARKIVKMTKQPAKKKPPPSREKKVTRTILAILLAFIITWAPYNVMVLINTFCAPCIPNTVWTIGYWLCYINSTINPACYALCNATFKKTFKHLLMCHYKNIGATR
Briefly: Functional mobilization of intracellular calcium (FLIPR), M2-CHO cells. The following applies: for M2 Activity: M2-CHO cells, calcium mobilization (FLIPR). The method, boiled down:
as §1

Setting [1] is: 100% efficacy = maximum response obtained with the Carbachol control.
[2] abbreviates: 100% efficacy is the maximum response obtained with the Carbachol control.

As to `FC(F)(F)c1ccccc1C1CCN(C2CC3CCC(C3)C2)CC1` (stereo not shown) [Compound 343], the maximum response (Emax) at M1 muscarinic receptor (setting [1]) is 25 to 100%; on M4 muscarinic receptor (setting [1]), 25 to 100%; on M3 muscarinic receptor (setting [1]), less than 25%; on M2 muscarinic receptor (setting [1]), less than 25%. Besides, the “M1 Activity” value at M1 muscarinic receptor is on record as “+ (activity was measured to be greater than 5.0 μM)”. Besides, the “M4 Activity” value on M4 muscarinic receptor is on record as “+++ (activity was measured to be less than 1.0 μM)”. Besides, on M3 muscarinic receptor, the “M3 Activity” value is “+ (activity was measured to be greater than 5.0 μM)”. The “M2 Activity” value at M2 muscarinic receptor is reported as “+ (activity was measured to be greater than 5.0 μM)”.
As for `CCOC(=O)N1C2CCC1CC(N1CCC(OC)(c3cc(F)ccc3OC)CC1)C2` (stereo not shown) [Compound 118], the Emax is 25 to 100% at M1 muscarinic receptor (setting [1]), 25 to 100% on M4 muscarinic receptor (setting [1]), less than 25% at M3 muscarinic receptor (setting [1]) and less than 25% at M2 muscarinic receptor (setting [1]). The “M1 Activity” value at M1 muscarinic receptor is given as “+++ (activity was measured to be less than 1.0 μM)”. Besides, the “M4 Activity” value on M4 muscarinic receptor was “+++ (activity was measured to be less than 1.0 μM)”. Besides, at M3 muscarinic receptor, the “M3 Activity” value is listed as “+ (activity was measured to be greater than 5.0 μM)”. At M2 muscarinic receptor, the “M2 Activity” value is “+ (activity was measured to be greater than 5.0 μM)”.
With `CCOC(=O)N1CCC(N2CCC(O)(c3cc(Cl)ccc3OC)CC2)CC1` [Compound 31], the Emax on M1 muscarinic receptor (setting [1]) is 25 to 100%; on M4 muscarinic receptor (setting [1]) it was 25 to 100%; on M3 muscarinic receptor (setting [1]) it was less than 25%; on M2 muscarinic receptor (setting [1]), less than 25%. Besides, the “M1 Activity” value on M1 muscarinic receptor is “++ (activity was measured to be from 1.0 μM to 5.0 μM)”. Also, at M4 muscarinic receptor, the “M4 Activity” value was “+++ (activity was measured to be less than 1.0 μM)”. The “M3 Activity” value on M3 muscarinic receptor is listed as “+ (activity was measured to be greater than 5.0 μM)”. Also, at M2 muscarinic receptor, the “M2 Activity” value is given as “+ (activity was measured to be greater than 5.0 μM)”.
For the compound `Cc1cccc(-c2ccccc2C2CCN([C@H]3C[C@H]4CC[C@H]3C4)CC2)c1` [Compound 283], the Emax on M1 muscarinic receptor (setting [1]) was less than 25%; at M4 muscarinic receptor (setting [1]) it was 25 to 100%; on M3 muscarinic receptor (setting [1]), less than 25%; at M2 muscarinic receptor (setting [1]), less than 25%. The “M1 Activity” value on M1 muscarinic receptor was “+ (activity was measured to be greater than 5.0 μM)”. In addition, the “M4 Activity” value on M4 muscarinic receptor is reported as “++ (activity was measured to be from 1.0 μM to 5.0 μM)”. The “M3 Activity” value at M3 muscarinic receptor is on record as “+ (activity was measured to be greater than 5.0 μM)”. The “M2 Activity” value on M2 muscarinic receptor is given as “+ (activity was measured to be greater than 5.0 μM)”.
`CCOC(=O)N1C2CCC1CC(N1CCC(c3cc(-c4ccc5c(c4)OCO5)ccc3OC)CC1)C2` (stereo not shown) [Compound 387]: the Emax is 25 to 100% at M1 muscarinic receptor (setting [2]), 25 to 100% on M4 muscarinic receptor (setting [2]), less than 25% on M3 muscarinic receptor (setting [2]) and less than 25% on M2 muscarinic receptor (setting [2]). In addition, at M1 muscarinic receptor, the “M1 Activity” value was “+ (activity was measured to be greater than 5.0 μM)”. Also, on M4 muscarinic receptor, the “M4 Activity” value was “++ (activity was measured to be from 1.0 μM to 5.0 μM)”. On M3 muscarinic receptor, the “M3 Activity” value was “+ (activity was measured to be greater than 5.0 μM)”. Further, the “M2 Activity” value on M2 muscarinic receptor is “+ (activity was measured to be greater than 5.0 μM)”.
As to `COc1ccc(C(=O)c2ccccc2)cc1C1CCN([C@H]2C[C@H]3CC[C@H]2C3)CC1` [Compound 50], the Emax at M1 muscarinic receptor (setting [1]) was 25 to 100%; on M4 muscarinic receptor (setting [1]), 25 to 100%; on M3 muscarinic receptor (setting [1]), less than 25%; on M2 muscarinic receptor (setting [1]) it was less than 25%. In addition, the “M1 Activity” value on M1 muscarinic receptor was “+ (activity was measured to be greater than 5.0 μM)”. Besides, the “M4 Activity” value on M4 muscarinic receptor is recorded as “++ (activity was measured to be from 1.0 μM to 5.0 μM)”. Besides, the “M3 Activity” value on M3 muscarinic receptor is listed as “+ (activity was measured to be greater than 5.0 μM)”. Further, the “M2 Activity” value at M2 muscarinic receptor is given as “+ (activity was measured to be greater than 5.0 μM)”.
Regarding `COc1ccc(C#Cc2ccccc2)cc1C1CCN(C2CC3CC[C@H]2C3)CC1` (stereo in doubt) [Compound 64, 1-((1S,2R,4R)-bicyclo[2.2.1]heptan-2-yl)-4-(2-methoxy-5-(phenyl-ethynyl)phenyl)piperidine], the maximal effect (Emax) on M1 muscarinic receptor (setting [1]) is 25 to 100%; at M4 muscarinic receptor (setting [1]), 25 to 100%; at M3 muscarinic receptor (setting [1]) it was less than 25%; on M2 muscarinic receptor (setting [1]), 25 to 100%. The “M1 Activity” value at M1 muscarinic receptor is “+ (activity was measured to be greater than 5.0 μM)”. Besides, the “M4 Activity” value on M4 muscarinic receptor was “++ (activity was measured to be from 1.0 μM to 5.0 μM)”. Further, the “M3 Activity” value on M3 muscarinic receptor is reported as “+ (activity was measured to be greater than 5.0 μM)”. Moreover, the “M2 Activity” value at M2 muscarinic receptor was “+ (activity was measured to be greater than 5.0 μM)”.
Regarding `COc1ccc(-c2cccc(C(N)=O)c2)cc1C1CCN([C@@H]2C[C@H]3CC[C@H]2C3)CC1` [Compound 144], the Emax on M1 muscarinic receptor (setting [1]), on M4 muscarinic receptor (setting [1]), on M3 muscarinic receptor (setting [1]) and at M2 muscarinic receptor (setting [1]) was less than 25% each time. For the same compound, the “M1 Activity” value at M1 muscarinic receptor was “+ (activity was measured to be greater than 5.0 μM)”. The “M4 Activity” value at M4 muscarinic receptor is recorded as “+ (activity was measured to be greater than 5.0 μM)”. Further, the “M3 Activity” value at M3 muscarinic receptor was “+ (activity was measured to be greater than 5.0 μM)”. The “M2 Activity” value at M2 muscarinic receptor is “+ (activity was measured to be greater than 5.0 μM)”.
Regarding `COc1ccc(-c2cccc(Cl)c2)cc1C1CCN([C@@H]2C[C@H]3CC[C@H]2C3)CC1` [Compound 143], the Emax at M1 muscarinic receptor (setting [1]) was less than 25%; at M4 muscarinic receptor (setting [1]) it was 25 to 100%; at M3 muscarinic receptor (setting [1]) it was less than 25%; on M2 muscarinic receptor (setting [1]), less than 25%. Also, the “M1 Activity” value at M1 muscarinic receptor is recorded as “+ (activity was measured to be greater than 5.0 μM)”. Further, the “M4 Activity” value on M4 muscarinic receptor was “+ (activity was measured to be greater than 5.0 μM)”. The “M3 Activity” value on M3 muscarinic receptor was “+ (activity was measured to be greater than 5.0 μM)”. Also, on M2 muscarinic receptor, the “M2 Activity” value was “+ (activity was measured to be greater than 5.0 μM)”.
On to `COCCNC(=O)c1ccc(-c2ccc(OC)c(C3CCN([C@H]4C[C@H]5CC[C@H]4C5)CC3)c2)cc1` [Compound 87], for which the maximal response (Emax) on M1 muscarinic receptor (setting [1]), at M4 muscarinic receptor (setting [1]), on M3 muscarinic receptor (setting [1]) and at M2 muscarinic receptor (setting [1]) was less than 25% in each case. In addition, the “M1 Activity” value at M1 muscarinic receptor is recorded as “+ (activity was measured to be greater than 5.0 μM)”. Besides, the “M4 Activity” value on M4 muscarinic receptor is listed as “+ (activity was measured to be greater than 5.0 μM)”. Also, the “M3 Activity” value on M3 muscarinic receptor was “+ (activity was measured to be greater than 5.0 μM)”. The “M2 Activity” value on M2 muscarinic receptor is “+ (activity was measured to be greater than 5.0 μM)”.
In the case of `COc1ccc(Cl)cc1C1(F)CCN(C[C@H]2C[C@H]3C=C[C@H]2C3)CC1` [Compound 213], the Emax at M1 muscarinic receptor (setting [1]) was 25 to 100%; at M4 muscarinic receptor (setting [1]) it was 25 to 100%; on M3 muscarinic receptor (setting [1]), less than 25%; at M2 muscarinic receptor (setting [1]), 25 to 100%. Also, the “M1 Activity” value at M1 muscarinic receptor is on record as “+ (activity was measured to be greater than 5.0 μM)”. Besides, on M4 muscarinic receptor, the “M4 Activity” value was “+++ (activity was measured to be less than 1.0 μM)”. Further, the “M3 Activity” value on M3 muscarinic receptor was “+ (activity was measured to be greater than 5.0 μM)”. In addition, the “M2 Activity” value at M2 muscarinic receptor is “++ (activity was measured to be from 1.0 μM to 5.0 μM)”.

As a reminder, the Emax is the size of the effect at its maximum, as opposed to the concentration needed.
